Measurements taken from patent US20050148763A1, “Peg-binding pth or peg-binding pth derivative” (Chugai Seiyaku Kabushiki Kaisha, priority 2002, published 2005).

How the values were obtained:
Format in all cases: in vivo
[1] = Hypotensive effect in anesthetized rats; conditions: sc
Protocol: The mono-methoxy 5 k PEG-PTH(1-34) prepared in Example 1(2) was also adjusted similarly to 36.5, 18.3 and 9.1 μg/mL (calculated as PTH(1-34)). The samples thus prepared were then stored on ice and restored to room temperature about 30 minutes before administration.
Female SD rats at 10 weeks of age (Charles River Japan, Inc.) were anesthetized by intraperitoneal administration of 50 mg/kg pentobarbital sodium (Abbott Laboratories). A catheter for blood pressure measurement and a catheter for anesthesia maintenance were inserted into the femoral artery and vein, respectively, of each rat. Anesthesia was maintained using a syringe pump (Terumo Corporation) to ensure continuous injection (at 22.5 mg/kg/hour) of pentobarbital sodium (powder form, Tokyo Kasei Kogyo Co., Ltd.) dissolved in physiological saline (Otsuka Pharmaceutical Co., Ltd.). On the other hand, each catheter for blood pressure measurement was filled with 100 U/mL heparin sodium (Novo Nordisk A/S) in physiological saline. To measure systemic blood pressure, a pressure transducer (Nihon Kohden Corporation) was connected to the catheter for blood pressure measurement and signals from the transducer were input to a blood pressure amplifier (Nihon Kohden Corporation). The resulting data were averaged for use as an indicator of systemic blood pressure. The output of systemic blood pressure was, in turn, input to a measuring unit for instantaneous heart rate (Nihon Kohden Corporation) to determine heart rate. These parameters were continuously recorded on a thermal pen recorder (Graphtec Corporation) at a speed of 5 mm/min. After surgery, an injection needle for administration of a test substance was inserted into the dorsal subcutaneous region of each rat. After each parameter had stabilized, test drugs were administered. […] This figure illustrates changes in blood pressure induced by administration of a negative control (buffer), 50 μg/kg hPTH (1-34) and 36.5 μg/kg 5 k PEG-PTH(1-34) in this order from the upper panel. In addition, the average value of blood pressure before PTH administration and the value at the maximum blood pressure drop after administration were measured for each case to determine the difference between these two values. […] The vertical axis represents the maximum blood pressure drop (mmHg) and the horizontal axis represents the amount of PTH administered.

[2] = Hypercalcemic effect of PEG-[Cys^35]-PTH(1-35) in normal female DDY mice; conditions: for Blood iCa level Hour 1: 1 hour after administration; for Blood iCa level Hour 3: 3 hours; for Blood iCa level Hour 6: 6 hours; for Blood iCa level Hour 9: 9 hours; for Blood iCa level Hour 24: 24 hours; for Blood iCa level Hour 0: before administration
Protocol: 2 k, 5 k and 20 k PEG-[Cys^35]-PTH(1-35) were also adjusted similarly to 30, 10 and 2 nmol/mL (calculated as PTH) and allowed to stand on ice immediately before administration.
Using female DDY mice at 6 weeks of age (Japan SLC, Inc.), the corrected level of ionized calcium at pH 7.4 was determined for each sample in the same manner as shown in (1) above. The mice received subcutaneous administration of each drug at a dose of 5 mL/kg. The buffer was administered to a group of 5 mice. […] 150 nmol/kg 2 k, 5 k and 20 k PEG-[Cys^35]-PTH(1-35) were administered to groups of 4 mice each. 50 and 10 nmol/kg 2 k, 5 k and 20 k PEG-[Cys^35]-PTH(1-35) were administered to groups of 5 mice each. At 1, 3, 6, 9 and 24 hours after administration, blood was collected by orbital puncture to monitor the time course of corrected blood ionized calcium levels.

[3] = Hypercalcemic effect of PEG-PTH(1-34) in normal female DDY mice; conditions: sc, hPTH(1-34) 50-500 nmol/kg, 5 k PEG-PTH(1-34) 150 nmol/kg
Protocol: 2 k and 5 k PEG-PTH(1-34) were also adjusted similarly to 30 nmol/mL (calculated as PTH) and allowed to stand on ice immediately before administration.
Male BDF1 mice at 5 weeks of age (Charles River Japan, Inc.) were measured for their body weight. Immediately before drug administration, blood was collected by orbital puncture into heparinized capillary tubes and measured for baseline levels of blood ionized calcium and pH using a Ca^2+/pH analyzer (Model 348/Bayer Medical Ltd.) to give the corrected level of ionized calcium at pH 7.4 for each sample. The mice received subcutaneous administration of each drug at a dose of 5 mL/kg. […] At 1, 3 and 6 hours after administration, blood was collected by orbital puncture to monitor the time course of corrected blood ionized calcium levels.
The same experiment was repeated on female DDY mice at 5 weeks of age (Charles River Japan, Inc.). The mice received subcutaneous administration of each drug at a dose of 5 mL/kg. […] At 1, 3 and 6 hours after administration, blood was collected by orbital puncture to monitor the time course of corrected blood ionized calcium levels.

| Compound | Blood iCa level Hour 1 ([2]; 50 nmol/kg sc) | Blood iCa level Hour 3 ([2]; 50 nmol/kg sc) | Blood iCa level Hour 6 ([2]; 50 nmol/kg sc) | Blood iCa level Hour 9 ([2]; 50 nmol/kg sc) | Blood iCa level Hour 24 ([2]; 50 nmol/kg sc) | Blood iCa level Hour 0 ([2]; 50 nmol/kg sc) | Blood iCa level Hour 1 ([2]; 150 nmol/kg sc) | Blood iCa level Hour 3 ([2]; 150 nmol/kg sc) | Blood iCa level Hour 6 ([2]; 150 nmol/kg sc) | Blood iCa level Hour 9 ([2]; 150 nmol/kg sc) | Blood iCa level Hour 24 ([2]; 150 nmol/kg sc) | Blood iCa level Hour 0 ([2]; 150 nmol/kg sc) | time of maximum increase in blood ionized calcium levels after administration ([2]; female DDY mice, sc) | further results |
| --- | --- | --- | --- | --- | --- | --- | --- | --- | --- | --- | --- | --- | --- | --- |
| CC[C@H](C)[C@H](NC(=O)[C@H](CCC(=O)O)NC(=O)[C@H](CO)NC(=O)[C@@H](NC(=O)[C@@H](N)CO)C(C)C)C(=O)N[C@@H](CCC(N)=O)C(=O)N[C@@H](CC(C)C)C(=O)N[C@@H](CCSC)C(=O)N[C@@H](Cc1cnc[nH]1)C(=O)N[C@@H](CC(N)=O)C(=O)N[C@@H](CC(C)C)C(=O)NCC(=O)N[C@@H](CCCCN)C(=O)N[C@@H](Cc1cnc[nH]1)C(=O)N[C@@H](CC(C)C)C(=O)N[C@@H](CC(N)=O)C(=O)N[C@@H](CO)C(=O)N[C@@H](CCSC)C(=O)N[C@@H](CCC(=O)O)C(=O)N[C@@H](CCCN=C(N)N)C(=O)N[C@H](C(=O)N[C@@H](CCC(=O)O)C(=O)N[C@@H](Cc1c[nH]c2ccccc12)C(=O)N[C@@H](CC(C)C)C(=O)N[C@@H](CCCN=C(N)N)C(=O)N[C@@H](CCCCN)C(=O)N[C@@H](CCCCN)C(=O)N[C@@H](CC(C)C)C(=O)N[C@@H](CCC(N)=O)C(=O)N[C@@H](CC(=O)O)C(=O)N[C@H](C(=O)N[C@@H](Cc1cnc[nH]1)C(=O)N[C@@H](CC(N)=O)C(=O)N[C@@H](Cc1ccccc1)C(=O)O)C(C)C)C(C)C [hPTH(1-34), reference compound] | 1.45 ± 0.03 mM | 1.43 ± 0.03 mM | 1.33 ± 0.02 mM | 1.27 ± 0.05 mM | 1.36 ± 0.02 mM | 1.31 ± 0.03 mM | 1.46 ± 0.02 mM | 1.48 ± 0.03 mM | 1.36 ± 0.02 mM | 1.32 ± 0.04 mM | 1.36 ± 0.03 mM | 1.33 ± 0.03 mM | 3 h | hypotensive effect after administration (in words) ([1]; anesthetized female SD rats): strong hypotensive effect immediately after administration; hypotensive effect over doses, maximum blood pressure drop (in words) ([1]; anesthetized rats, hPTH(1-34) 12.5-50 μg/kg, 5 k PEG-PTH(1-34) 9.1-36.5 μg/kg): dose-dependent hypotensive effect in the range of 12.5 μg/kg to 50 μg/kg; Blood iCa level Hour 1 ([2]; 500 nmol/kg sc): 1.44 ± 0.04 mM; Blood iCa level Hour 3 ([2]; 500 nmol/kg sc): 1.46 ± 0.04 mM; Blood iCa level Hour 6 ([2]; 500 nmol/kg sc): 1.43 ± 0.01 mM; Blood iCa level Hour 9 ([2]; 500 nmol/kg sc): 1.27 ± 0.04 mM; Blood iCa level Hour 24 ([2]; 500 nmol/kg sc): 1.39 ± 0.02 mM; Blood iCa level Hour 0 ([2]; 500 nmol/kg sc): 1.34 ± 0.03 mM; time of maximum increase in blood ionized calcium levels after administration [3]: 3 h |
| 2 k PEG-[Cys^35]-hPTH(1-35): [Cys^35]-PTH(1-35) conjugated with mPEG 2 k-MAL (2 kDa methoxy-PEG-maleimide) at the C-terminal cysteine (SVSEIQLMHNLGKHLNSMERVEWLRKKLQDVHNFC; Parathyroid hormone 2 kDa mPEG-maleimide at Cys35; UniProt P01270 32-66, looked up, variant V35C) | 1.41 ± 0.02 mM | 1.47 ± 0.03 mM | 1.47 ± 0.02 mM | 1.29 ± 0.05 mM | 1.34 ± 0.03 mM | 1.27 ± 0.03 mM | 1.44 ± 0.02 mM | 1.47 ± 0.05 mM | 1.48 ± 0.05 mM | 1.26 ± 0.02 mM | 1.34 ± 0.03 mM | 1.32 ± 0.02 mM | 3 h | Blood iCa level Hour 1 ([2]; 10 nmol/kg sc): 1.44 ± 0.03 mM; Blood iCa level Hour 3 ([2]; 10 nmol/kg sc): 1.48 ± 0.02 mM; Blood iCa level Hour 6 ([2]; 10 nmol/kg sc): 1.39 ± 0.02 mM; Blood iCa level Hour 9 ([2]; 10 nmol/kg sc): 1.32 ± 0.04 mM; Blood iCa level Hour 24 ([2]; 10 nmol/kg sc): 1.37 ± 0.02 mM; Blood iCa level Hour 0 ([2]; 10 nmol/kg sc): 1.30 ± 0.04 mM; increased blood ionized calcium level maintained until ([2]; female DDY mice, sc): 6 h |
